The numbers were not newly measured in patent US20210059976A1, “ORAL PHARMACEUTICAL FORMULATION COMPRISING CANNABINOIDS AND POLOXAMER” (GW Research Limited, priority 2018, published 2021), which cites them from elsewhere.

Where two headings read alike, the source gives them in different places.

Series [1] deals with acute experimental models of generalized seizure.
For series [2] the following is noted: 20 mg oral administration, man.

`C=C(C)[C@@H]1CCC(C)=C[C@H]1c1c(O)cc(CCCCC)cc1O` [CBD, cannabidiol]: the Oral bioavailability result was “low and unpredictable”. In series [1] (100 mg/kg, but not 1 or 10 mg/kg), the “efficacy in acute experimental models of generalized seizure” value is on record as “efficacious”.

Turning to `CCCCCc1cc(O)c2c(c1)OC(C)(C)[C@@H]1CCC(C)=C[C@@H]21` [THC, tetrahydrocannabinol], the “efficacy in acute experimental models of generalized seizure” value in series [1] (between 1.25 and 10 mg/kg) is “efficacious”. The somnolence entry in series [2] is listed as “induces somnolence”.
